Results: patent US20260327191A1, “GSK3a INHIBITORS AND METHODS OF USE THEREOF” (Blueprint Medicines Corporation, priority 2023, published 2026)

How the values were obtained:
human GSK3α = target: T1, human GSK3α (Homo sapiens, UniProt P49840); test: In vitro enzymatic activity assay, GSK3α; format: biochemical; settings: 1.0 mM ATP, 1.0 μM peptide substrate, 120 min, 25° C, read-out: Enzyme GSK3α (IC50)
T1 construct: Full length human GSK3α or GSK3B expressed as N-terminal GST fusion proteins; GST (N); purchased Carna Biosciences (Japan); host or cells: baculovirus host
Description: (§1) Full length human GSK3α or GSK3B expressed as N-terminal GST fusion proteins in baculovirus host were purchased from Carna Biosciences (Japan). The kinase was pre-incubated with ATP (adenosine-5′-triphosphate) for 45 min, then incubated with tested compounds for another 45 min in assay buffer that contains 100 mM HEPES (N-2-hydroxyethylpiperazine-N′-2-ethanesulfonic acid), pH 7.5, 10 mM MgCl2, 1.0 mM DTT, and 0.015% Briji-35. […] Percent inhibition was plotted against compound concentration to generate 10-point dose response curve with 3-fold serial dilution starting from 10 μM. IC50 value was determined from the 4-parameter logistic curve fitting.

GSK3B [1] = target: T2, GSK3B (Homo sapiens, UniProt P49841); test: NanoBRET cellular target engagement assay, Nanoluc-GSK3B in HEK293 cells; format: cell-based; design: expressed in transfected cells; settings: NanoBRET GSK3β IC50, HEK293 cells, tracer K-8, 2 hours, 37° C
Description: (§2) In the assay, HEK293 cells stably expressing either Nanoluc-GSK3A or Nanoluc-GSK3B were maintained in culture media and seeded, using a multidrop dispenser, at a density of 5×10^3 cells per well in 384-well white plates with 100 ng/ml doxycycline (Sigma) overnight.
(§3) Compound was first diluted in DMSO to generate a 9-point serial dilution then diluted to 10× final concentration in Opti-MEM™ (Gibco). After overnight incubation, cell medium was aspirated from the seeded cells using a microplate automatic washer, then 27 μL of pre-warmed Opti-MEM™ with kinase tracer (K-8) and 3 μL of Opti-MEM™ diluted DMSO or compounds were added per well. Plates were protected from light, mixed in an orbital shaker for 3 min at RT and incubated at 37° C., 5% CO2 in a humidified incubator for 2 hours. After acclimation at RT for 15 min, 15 μL of 3× complete NanoBRET™ Nano-Glo Substrate/Inhibitor (Promega) was added per well. Plates were mixed in an orbital shaker for 3 min at RT and incubated for an additional 30 min. Donor emission at 460 nm and acceptor emission at 647 nm were measured in EnVision multilabel plate reader (Perkin Elmer).

GSK3B [2] = target: T2, GSK3B; test: In vitro enzymatic activity assay, GSK3β; format: biochemical; design: Full length human GSK3α or GSK3B expressed as N-terminal GST fusion proteins; GST (N); purchased Carna Biosciences (Japan); host or cells: baculovirus host; settings: 1.0 mM ATP, 1.0 μM peptide substrate, 120 min, 25° C, read-out: Enzyme GSK3β (IC50)
Description: as §1

GSK3A = target: T3, GSK3A (Homo sapiens, UniProt P49840); test: NanoBRET cellular target engagement assay, Nanoluc-GSK3A in HEK293 cells; format: cell-based; settings: NanoBRET GSK3α IC50, HEK293 cells, tracer K-8, 2 hours, 37° C
T3 construct: expressed in transfected cells
Description: as §2, §3

T3 sequence (P49840 whole entry): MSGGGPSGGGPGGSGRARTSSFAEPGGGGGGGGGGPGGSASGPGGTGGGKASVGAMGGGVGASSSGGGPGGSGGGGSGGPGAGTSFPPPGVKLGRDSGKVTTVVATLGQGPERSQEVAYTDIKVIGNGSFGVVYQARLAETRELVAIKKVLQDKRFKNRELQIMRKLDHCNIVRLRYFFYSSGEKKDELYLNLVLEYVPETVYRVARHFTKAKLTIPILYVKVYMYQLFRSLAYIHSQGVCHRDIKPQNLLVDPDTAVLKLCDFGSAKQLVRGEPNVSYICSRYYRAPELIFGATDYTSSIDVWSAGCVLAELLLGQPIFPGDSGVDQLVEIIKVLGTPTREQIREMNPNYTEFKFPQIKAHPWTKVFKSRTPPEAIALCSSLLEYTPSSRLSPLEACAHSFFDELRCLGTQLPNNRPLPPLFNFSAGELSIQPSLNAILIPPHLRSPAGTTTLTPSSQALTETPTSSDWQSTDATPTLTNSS
T1 sequence (P49840 whole entry, the tested form may be a part): as the sequence (P49840 whole entry) above
T2 sequence (P49841 whole entry): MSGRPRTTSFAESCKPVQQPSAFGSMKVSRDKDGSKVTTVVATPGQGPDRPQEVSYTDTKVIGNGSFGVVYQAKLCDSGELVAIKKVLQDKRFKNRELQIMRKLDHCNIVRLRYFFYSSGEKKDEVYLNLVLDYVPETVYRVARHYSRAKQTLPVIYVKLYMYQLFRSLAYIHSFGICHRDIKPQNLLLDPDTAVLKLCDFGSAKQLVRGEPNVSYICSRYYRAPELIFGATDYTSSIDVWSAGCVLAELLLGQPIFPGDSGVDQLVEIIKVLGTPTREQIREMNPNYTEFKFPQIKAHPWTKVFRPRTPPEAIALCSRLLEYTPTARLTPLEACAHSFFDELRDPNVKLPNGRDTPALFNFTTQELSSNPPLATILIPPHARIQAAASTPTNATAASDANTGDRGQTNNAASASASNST

IC50 (human GSK3α) [nM] | IC50 (GSK3B [1]) [nM] | IC50 (GSK3B [2]) [nM] | IC50 (GSK3A) [nM] | Compound
4.9 | 285 | 283 | 5.4 | C[C@H](N)c1cncc(NC(=O)c2c(N)ncn(-c3c(Cl)cc(C#N)cc3Cl)c2=O)c1 (single isomer, unassigned) [Example 43, (S)-4-amino-N-(5-(1-aminoethyl)pyridin-3-yl)-1-(2,6-dichloro-4-cyanophenyl)-6-oxo-1,6-dihydropyrimidine-5-carboxamide or (R)-4-amino-N-(5-(1-aminoethyl)pyridin-3-yl)-1-(2,6-dichloro-4-cyanophenyl)-6-oxo-1,6-dihydropyrimidine-5-carboxamide]
4.7 | 518 | 382 | 7.6 | COC[C@@H](N)c1cncc(NC(=O)c2c(N)ncn(-c3c(Cl)cc(C#N)cc3Cl)c2=O)c1 (single isomer, unassigned) [Example 44, (S)-4-amino-N-(5-(1-amino-2-methoxyethyl)pyridin-3-yl)-1-(2,6-dichloro-4-cyanophenyl)-6-oxo-1,6-dihydropyrimidine-5-carboxamide or (R)-4-amino-N-(5-(1-amino-2-methoxyethyl)pyridin-3-yl)-1-(2,6-dichloro-4-cyanophenyl)-6-oxo-1,6-dihydropyrimidine-5-carboxamide]
3.2 | 174 | 227 | 2.9 | COC[C@H](N)c1cncc(NC(=O)c2c(N)ncn(-c3c(Cl)cc(OC(F)F)cc3Cl)c2=O)c1 (single isomer, unassigned) [Example 47, (R)-4-amino-N-(5-(1-amino-2-methoxyethyl)pyridin-3-yl)-1-(2,6-dichloro-4-(difluoromethoxy)phenyl)-6-oxo-1,6-dihydropyrimidine-5-carboxamide or (S)-4-amino-N-(5-(1-amino-2-methoxyethyl)pyridin-3-yl)-1-(2,6-dichloro-4-(difluoromethoxy)phenyl)-6-oxo-1,6-dihydropyrimidine-5-carboxamide]
2.5 | 144 | 161 | 2.8 | COCC(N)c1cncc(NC(=O)c2c(N)ncn(-c3c(Cl)cc(Cl)cc3Cl)c2=O)c1 (single isomer, unassigned) [Example 49, (R)-4-amino-N-(5-(1-amino-2-methoxyethyl)pyridin-3-yl)-6-oxo-1-(2,4,6-trichlorophenyl)-1,6-dihydropyrimidine-5-carboxamide or (S)-4-amino-N-(5-(1-amino-2-methoxyethyl)pyridin-3-yl)-6-oxo-1-(2,4,6-trichlorophenyl)-1,6-dihydropyrimidine-5-carboxamide]
16.5 | 439 | 708 | 7.4 | C[C@@H](N)c1cncc(NC(=O)c2c(N)ncn(-c3c(Cl)cc(Cl)cc3Cl)c2=O)c1 (single isomer, unassigned) [Example 50, (R)-4-amino-N-(5-(1-aminoethyl)pyridin-3-yl)-6-oxo-1-(2,4,6-trichlorophenyl)-1,6-dihydropyrimidine-5-carboxamide or (S)-4-amino-N-(5-(1-aminoethyl)pyridin-3-yl)-6-oxo-1-(2,4,6-trichlorophenyl)-1,6-dihydropyrimidine-5-carboxamide]
2.8 | 124 | 142 | 2.2 | C[C@@H](N)c1cncc(NC(=O)c2c(N)ncn(-c3c(Cl)cc(OC4CC4)cc3Cl)c2=O)c1 (single isomer, unassigned) [Example 51, (R)-4-amino-N-(5-(1-aminoethyl)pyridin-3-yl)-1-(2,6-dichloro-4-cyclopropoxyphenyl)-6-oxo-1,6-dihydropyrimidine-5-carboxamide or (S)-4-amino-N-(5-(1-aminoethyl)pyridin-3-yl)-1-(2,6-dichloro-4-cyclopropoxyphenyl)-6-oxo-1,6-dihydropyrimidine-5-carboxamide]
12.9 | 356 | 625 | 6.8 | COc1cc(C)c(-n2cnc(N)c(C(=O)Nc3cncc(C4CCCCCN4)c3)c2=O)c(C)c1 (single isomer, unassigned) [Example 53, (R)-4-amino-N-(5-(azepan-2-yl)pyridin-3-yl)-1-(4-methoxy-2,6-dimethylphenyl)-6-oxo-1,6-dihydropyrimidine-5-carboxamide or (S)-4-amino-N-(5-(azepan-2-yl)pyridin-3-yl)-1-(4-methoxy-2,6-dimethylphenyl)-6-oxo-1,6-dihydropyrimidine-5-carboxamide]
7.9 | 277 | 382 | 5.4 | C[C@@H](N)c1cncc(NC(=O)c2c(N)ncn(-c3c(Cl)cc(C(F)F)cc3Cl)c2=O)c1 (single isomer, unassigned) [Example 57, (R)-4-amino-N-(5-(1-aminoethyl)pyridin-3-yl)-1-(2,6-dichloro-4-(difluoromethyl)phenyl)-6-oxo-1,6-dihydropyrimidine-5-carboxamide or (S)-4-amino-N-(5-(1-aminoethyl)pyridin-3-yl)-1-(2,6-dichloro-4-(difluoromethyl)phenyl)-6-oxo-1,6-dihydropyrimidine-5-carboxamide]
3.1 | 187 | 224 | 2.5 | Nc1ncn(-c2c(Cl)cc(C(F)F)cc2Cl)c(=O)c1C(=O)Nc1cncc([C@@H]2COCCCN2)c1 (single isomer, unassigned) [Example 59, (R)-N-(5-(1,4-oxazepan-3-yl)pyridin-3-yl)-4-amino-1-(2,6-dichloro-4-(difluoromethyl)phenyl)-6-oxo-1,6-dihydropyrimidine-5-carboxamide or (S)-N-(5-(1,4-oxazepan-3-yl)pyridin-3-yl)-4-amino-1-(2,6-dichloro-4-(difluoromethyl)phenyl)-6-oxo-1,6-dihydropyrimidine-5-carboxamide]
6 | 206 | 349 | 2.9 | COCc1cc(Cl)c(-n2cnc(N)c(C(=O)Nc3cncc([C@@H](C)N)c3)c2=O)c(Cl)c1 (single isomer, unassigned) [Example 66, (R)-4-amino-N-(5-(1-aminoethyl)pyridin-3-yl)-1-(2,6-dichloro-4-(methoxymethyl)phenyl)-6-oxo-1,6-dihydropyrimidine-5-carboxamide or (S)-4-amino-N-(5-(1-aminoethyl)pyridin-3-yl)-1-(2,6-dichloro-4-(methoxymethyl)phenyl)-6-oxo-1,6-dihydropyrimidine-5-carboxamide]
2.1 | 73.4 | 105 | 1.4 | COCc1cc(Cl)c(-n2cnc(N)c(C(=O)Nc3cncc([C@@H](C)N)c3)c2=O)c(Cl)c1 (single isomer, unassigned) [Example 67, (S)-4-amino-N-(5-(1-aminoethyl)pyridin-3-yl)-1-(2,6-dichloro-4-(methoxymethyl)phenyl)-6-oxo-1,6-dihydropyrimidine-5-carboxamide or (R)-4-amino-N-(5-(1-aminoethyl)pyridin-3-yl)-1-(2,6-dichloro-4-(methoxymethyl)phenyl)-6-oxo-1,6-dihydropyrimidine-5-carboxamide]
12.5 | 513 | 536 | 7 | CCOC[C@H](N)c1cncc(NC(=O)c2c(N)ncn(-c3c(Cl)cc(COC)cc3Cl)c2=O)c1 (single isomer, unassigned) [Example 69, (R)-4-amino-N-(5-(1-amino-2-ethoxyethyl)pyridin-3-yl)-1-(2,6-dichloro-4-(methoxymethyl)phenyl)-6-oxo-1,6-dihydropyrimidine-5-carboxamide or (S)-4-amino-N-(5-(1-amino-2-ethoxyethyl)pyridin-3-yl)-1-(2,6-dichloro-4-(methoxymethyl)phenyl)-6-oxo-1,6-dihydropyrimidine-5-carboxamide]
